US8680139B2 (Progenra, priority 2009, dated 2014)
pEC50: −log10 of the molar value.

Key:
U251 = assay: NCI-60 Human Tumor Cell Line Growth Inhibition Screen; assay type: cell-based; details: U-251, U251, CNS Cancer, 48 hours, SRB
Description: (§1) Various human tumor cell lines representing the NCI-60 cancer screening panel were grown in RPMI 1640 medium containing 5% fetal bovine serum and 2 mM L-glutamine. For a typical screening experiment, cells were inoculated into 96 well microtiter plates in 100 μL at plating densities ranging from 5,000 to 40,000 cells/well depending on the doubling time of individual cell lines. After cell inoculation, the microtiter plates were incubated at 37° C., 5% CO2, 95% air and 100% relative humidity for 24 hours prior to addition of the test compound. After 24 hours, two plates of each cell line were fixed in situ with TCA, to represent a measurement of the cell population for each cell line at the time of test compound addition (Tz). Experimental test compounds were solubilized in 100% (v/v) DMSO at 400-fold the desired final maximum test concentration and stored frozen prior to use. At the time of test compound addition, an aliquot of frozen concentrate was thawed and diluted to twice the desired final maximum test concentration with complete medium containing 50 μg/ml gentamicin. Additional four, 10-fold or ½ log serial dilutions were made to provide a total of five test compound concentrations plus control. Aliquots of 100 μl of these different test compound dilutions were added to the appropriate microtiter wells already containing 100 μl of medium, resulting in the required final test compound concentrations.
(§2) Following test compound addition, the plates were incubated for an additional 48 hours at 37° C., 5% CO2, 95% air, and 100% relative humidity. For adherent cells, the assay was terminated by the addition of cold TCA. Cells were fixed in situ by the gentle addition of 50 μl of cold 50% (w/v) TCA and incubated for 60 minutes at 4° C. The supernatant was discarded, and the plates were washed five times with tap water and air dried. Sulforhodamine B (SRB) solution (100 μl) at 0.4% (w/v) in 1% acetic acid was added to each well, and plates were incubated for 10 minutes at room temperature. After staining, unbound dye was removed by washing five times with 1% acetic acid and the plates were air dried. Bound stain was subsequently solubilized with 10 mM trizma base, and the absorbance was read on an automated plate reader at a wavelength of 515 nm. For suspension cells, the methodology was the same except that the assay was terminated by fixing settled cells at the bottom of the wells by gently adding 50 μl of 80% TCA. Using the seven absorbance measurements [time zero, (Tz), control growth, (C), and test growth in the presence of test compound at the five concentration levels (Ti)], the percentage growth was calculated at each of the test compound concentrations levels. Percentage growth inhibition was calculated as: [(Ti−Tz)/(C−Tz)]×100 for concentrations for which Ti≧Tz or [(Ti−Tz)/Tz]×100 for concentrations for which Ti<Tz. Growth inhibition of 50% (GI50) was calculated from [(Ti−Tz)/(C−Tz)]×100=50, which is the test compound concentration resulting in a 50% reduction in the net protein increase (as measured by SRB staining) in control cells during the test compound incubation.

CAKI-1 = assay: as above; assay type: cell-based; details: CAKI-1, Renal Cancer, 48 hours, SRB
Description: as §1, §2

HL-60(TB) = assay: as above; assay type: cell-based; details: Leukemia, 48 hours, SRB
Description: as §1, §2

OVCAR-3 = assay: as above; assay type: cell-based; details: OVCAR-3, Ovarian Cancer, 48 hours, SRB
Description: as §1, §2

HT29 = assay: as above; assay type: cell-based; details: HT-29, HT29, Colon Cancer, 48 hours, SRB
Description: as §1, §2

LOX IMVI = assay: as above; assay type: cell-based; details: Melanoma, 48 hours, SRB
Description: as §1, §2

A549/ATCC = assay: as above; assay type: cell-based; details: Non-Small Cell Lung Cancer, 48 hours, SRB
Description: as §1, §2

PC-3 = assay: as above; assay type: cell-based; details: PC-3, Prostate Cancer, 48 hours, SRB
Description: as §1, §2

MCF7 = assay: as above; assay type: cell-based; details: MCF7, Breast Cancer, 48 hours, SRB
Description: as §1, §2

USP7 = target: T1, USP7 (Homo sapiens, UniProt Q93009); assay: USP7, Ub-PLA2 assay; assay type: biochemical; details: Ub-PLA2 / NBD C6-HPC fluorescence, 30 minute preincubation; read-out: EC50 for inhibition of USP7
T1 construct: full length human USP7 protein; made in house
T1 sequence (Q93009 whole entry): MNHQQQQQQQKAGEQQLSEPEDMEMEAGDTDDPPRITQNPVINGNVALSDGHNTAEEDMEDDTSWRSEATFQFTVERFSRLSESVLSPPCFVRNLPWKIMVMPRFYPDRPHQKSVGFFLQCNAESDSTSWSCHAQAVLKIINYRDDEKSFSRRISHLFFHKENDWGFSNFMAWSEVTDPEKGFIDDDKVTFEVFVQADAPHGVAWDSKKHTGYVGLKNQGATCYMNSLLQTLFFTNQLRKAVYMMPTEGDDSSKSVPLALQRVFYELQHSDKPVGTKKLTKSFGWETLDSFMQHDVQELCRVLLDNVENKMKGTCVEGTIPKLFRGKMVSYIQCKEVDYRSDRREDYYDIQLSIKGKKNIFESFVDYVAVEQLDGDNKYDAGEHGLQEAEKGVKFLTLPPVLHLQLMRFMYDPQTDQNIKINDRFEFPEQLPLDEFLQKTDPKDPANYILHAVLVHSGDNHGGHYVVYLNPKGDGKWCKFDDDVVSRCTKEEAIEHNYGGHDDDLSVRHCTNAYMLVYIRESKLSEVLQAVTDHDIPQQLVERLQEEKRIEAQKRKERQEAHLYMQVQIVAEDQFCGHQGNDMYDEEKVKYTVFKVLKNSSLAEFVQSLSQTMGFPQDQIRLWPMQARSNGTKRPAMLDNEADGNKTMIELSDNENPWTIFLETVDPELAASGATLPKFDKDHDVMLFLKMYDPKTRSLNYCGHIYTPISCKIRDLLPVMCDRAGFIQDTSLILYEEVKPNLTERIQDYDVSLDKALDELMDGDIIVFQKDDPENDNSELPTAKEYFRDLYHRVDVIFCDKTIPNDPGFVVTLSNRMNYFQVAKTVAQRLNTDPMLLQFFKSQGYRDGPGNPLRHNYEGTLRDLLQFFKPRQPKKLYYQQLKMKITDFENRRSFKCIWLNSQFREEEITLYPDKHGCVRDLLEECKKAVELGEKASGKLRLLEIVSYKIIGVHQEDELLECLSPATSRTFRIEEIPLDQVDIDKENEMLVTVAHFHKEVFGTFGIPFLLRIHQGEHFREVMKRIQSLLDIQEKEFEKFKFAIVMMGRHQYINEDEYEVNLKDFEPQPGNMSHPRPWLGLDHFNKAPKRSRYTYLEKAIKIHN
Summary of the method: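 Activity read as fluorescence in a Ub-PLA2 format, with percent inhibition calculated within each plate against DMSO (uninhibited) and NEM (background) wells. Vehicle was 100% DMSO.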

[1] = HCT-116 Cellular Cytotoxicity Assay; details: human, HCT-116 cells, pH 7.2
Description: (§3) The purpose of this assay is to determine if any of the synthesized compounds are cytotoxic against HCT-116 cells, as measured by resazurin metabolism. Resazurin is metabolized only by living cells from a non-fluorescent molecule into Resorufin, a highly red fluorescent dye. […] The cells were cultured in an incubator at 37° C. in 5% CO2 and 95% humidified air. […] The final concentration DMSO was 0.5% (v/v) in all samples. The plates were returned to the incubator for 72 hours. Following 72 hours of test compound exposure, 10 μL of 0.2 mg/mL Resazurin (Sigma) in phosphate buffered saline was added to each well and the plate was returned to the incubator for 3-6 hours. Since living cells metabolize Resazurin, the fluorescence of the reduction product of Resazurin was measured using a microplate fluorometer with λex=531 nm and λem=590 nm filters. Resazurin dye in medium without cells was used to determine the background, which was subtracted from the data for all experimental wells.

HCT-116 cells [2] = system: HCT-116 cells
Description: as §3

[3] = system: human multiple myeloma tumor cells; assay: In vivo Efficacy of P5091; details: SCID mice, 10 mg/kg intravenously twice a week for three weeks
Description: Severe combined immunodeficient mice inoculated subcutaneously with human multiple myeloma tumor cells were treated intravenously twice a week for three weeks with 10 mg/kg P5091. […] See D. Chauhan et al., Abstract No. 610 (Deubiquitylating Enzyme USP-7, a Novel Therapeutic Target in Multiple Myeloma), 51st ASH Annual Meeting and Exposition, New Orelans, La., December 2009.

HCT-116 cells [4] = assay: HCT-116 Combination Cytotoxicity Assay; assay type: cell-based, human; details: constant ratio, 72 hours

Compound	GI50 (U251) [nM]	GI50 (CAKI-1) [nM]	GI50 (HL-60(TB)) [nM]	GI50 (OVCAR-3) [nM]	GI50 (HT29) [nM]	GI50 (LOX IMVI) [nM]	GI50 (A549/ATCC) [nM]	GI50 (PC-3) [nM]	GI50 (MCF7) [nM]	pEC50 (USP7)	EC50 at 72 h [1] [nM]	pEC50 (HCT-116 cells [2])	human plasmacytoma growth [3]	survival [3]	CI (mean ± SD) ED75 (HCT-116 cells [4]; combination with Chlormethine)	CI (mean ± SD) ED90 (HCT-116 cells [4]; combination with Chlormethine)	CI (mean ± SD) ED75 (HCT-116 cells [4]; combination with Doxorubicin)	CI (mean ± SD) ED90 (HCT-116 cells [4]; combination with Doxorubicin)	CI (mean ± SD) ED75 (HCT-116 cells [4]; combination with Etoposide)	CI (mean ± SD) ED90 (HCT-116 cells [4]; combination with Etoposide)
CS(=O)(=O)c1cc([N+](=O)[O-])c(Sc2ccc(Cl)cc2Cl)s1 [Example 23, 2-(2,4-dichlorophenyl)sulfanyl-5-methylsulfonyl-3-nitro-thiophene]	6310	2240	2190	1620	1780	1740	12600	3980	1700	5.00 to 6.00										
CC(=O)c1cc([N+](=O)[O-])c(Sc2c(Cl)cncc2Cl)s1 [Example 17, 1-[5-[(3,5-dichloro-4-pyridyl)sulfanyl]-4-nitro-2-thienyl]ethanone]	1950	1860	1910	1410	1860	1510	3090	2750	1910	5.00 to 6.00	8660									
CS(=O)(=O)c1cc([N+](=O)[O-])c(Sc2c(Cl)cncc2Cl)s1 [Example 22, 3,5-dichloro-4-[(5-methylsulfonyl-3-nitro-2-thienyl)sulfanyl]pyridine]	12900	1820	1410	1820	2040	10000	13800	3720	2040	5.00 to 6.00										
CC(=O)c1cc([N+](=O)[O-])c(Sc2ccc(F)cc2F)s1 [Example 3, 1-[5-(2,4-Difluorophenylsulfanyl)-4-nitro-2-thienyl]ethanone]	4790	1820	2750	2040	3800	1510	15500	12000	2570											
N-(5-(tert-butyl)isoxazol-3-yl)-5-((3,5-dichloropyridin-4-yl)thio)-4-nitrothiophene-2-carboxamide [Example 201]												4.89								
CC(=O)c1cc([N+](=O)[O-])c(Sc2cccc(Cl)c2Cl)s1 [Example P5091, 1-[5-(2,3-dichlorophenyl)sulfanyl-4-nitro-2-thienyl]ethanone]	2330	2170	1820	1650	2070	1840	16300	1780	1940		9210		significantly inhibited human plasmacytoma growth	significantly enhanced survival	0.67 ± 0.07	0.77 ± 0.05	0.73 ± 0.08	0.81 ± 0.02	0.54 ± 0.04	0.63 ± 0.01
